This series can be described thus: Hygroscopicity by DVS at 25° C. It is filed as physicochemical. The method, then: Hygroscopicity data of samples were collected using an ADVENTURE series dynamic vapor phase adsorption system (DVS) under N2 protection. Sample dosage ~30 mg. The testing method for anhydrous crystal form is as follows: • 1) Relative humidity increase process: 0% RH to 90% RH at a rate of 10% RH/stage; 90% RH to 95% RH at a rate of 5% RH/stage; • 2) Relative humidity reduction process: 95% RH to 90% RH at a rate of 5% RH/stage; 90% RH to 5% RH at a rate of 10% RH/stage. H Nuclear Magnetic Resonance Spectroscopy (H-NMR)

With `O=C1CO[C@H](c2cn(-c3ccc(Br)cc3)nc2-c2ccc(F)cc2)N1CCc1ccc2[nH]c(=O)[nH]c2c1` [Crystal form A], the hygroscopicity entry (DVS at 25° C.) is listed as “hardly hygroscopic”. The “weight gain (DVS)” value (at 80% RH, 25° C.) is given as 0.14%. In addition, the “crystal form after DVS testing (XRPD)” value (before and after DVS test) is “unchanged”.

The values are drawn from patent US12686674B2, “Crystal form of compound represented by formula I, and preparation therefor and application thereof” (Shanghai Zhimeng Biopharma, Inc., priority 2021, dated 2026).
